Measurements: patent EP4800015A1, “AZABICYCLO DERIVATIVE AND PREPARATION METHOD THEREFOR, AND USE” (Zhejiang Hisun Pharmaceutical Co., Ltd., priority 2023, dated 2025)

How the values were obtained:
recombinant human WRN = target: T1, recombinant human WRN (Homo sapiens, UniProt Q14191); assay: Inhibition of WRN enzyme activity (ATPase), ADP-Glo Kinase Assay; format: biochemical; details: WRN protein 5 nM, Flap 0.1 nM, ATP 30 µM; read-out: IC50
T1 construct: purchased BPS 101264
Outline: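 ATPase activity was measured by ADP-Glo luminescence after a 10-min room-temperature reaction with 30 µM ATP and 0.1 nM Flap26 oligonucleotide substrate. The 5 nM WRN had first been exposed to compound (0.004–1000 nM) for 15 min in pH 7.5 Tris buffer with 2 mM MgCl2. IC50 values came from log-concentration regression against the DMSO control.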

RL95-2 cells = assay: Inhibition of RL95-2 cell proliferation (CellTiter-Glo); format: cell-based; details: Homo sapiens; RL95-2 cells (MSI-H), 120 hours
Outline: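 Proliferation IC50 derived by nonlinear regression of % inhibition against log concentration, with 0.1% DMSO wells as reference. CellTiter-Glo luminescence was read after 120 h of compound exposure (10000 nM down to 1.52 nM final) at 37 °C. MSI-H RL95-2 cells seeded at 500/well in DMEM/F12 with 10% FBS the day before.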

[1] = Pharmacokinetic test in mice after intragastric administration; format: in vivo; details: male, mouse, plasma, ICR mice, Oral (10 mg/kg)
Experimental: ICR mice were used as test animals, the plasma concentrations of the control compound HRO761 and the compounds of the present disclosure at different time points after intragastric administration were determined by LC/MS/MS method, and the pharmacokinetic characteristics of the compounds of the present disclosure in mice were studied.
ICR mice, male, 30.8 to 38.0 g, purchased from Vital River Laboratory Animal Technology Co., Ltd.
An appropriate amount of the test compound was weighed, and an appropriate amount of DMA (N,N-dimethylacetamide), 30% Solutol HS15 (30% polyethylene glycol-15 hydroxystearate), and Saline (saline) were added sequentially, the mixture was ultrasonicated and vortex mixed to prepare a 1 mg/mL dosing formulation. The ratio of DMA:30% Solutol HS15:Saline was 5:5:90 (v/v/v).
After overnight fasting, ICR mice in each test compound injection group (9 mice per group) were administered intragastrically (PO, compound dose was 10 mg/kg, administration volume was 10 mL/kg), and food was given 4 hours after administration.
About 0.1 mL of blood was collected via the orbital cavity before administration and at 0.25 h, 0.5 h, 1 h, 2 h, 4 h, 8 h, 10 h, and 24 h after administration, and whole blood samples were placed in anticoagulant tubes containing EDTA-K2. The samples were placed on ice after collection, and plasma was separated by centrifugation (centrifugation conditions: 1500 g, 10 minutes). The collected plasma was stored at -40 to -20 °C before analysis.
The content of the test compound in mouse plasma after intragastric administration was determined by LC-MS/MS.

T1 sequence (Q14191 whole entry): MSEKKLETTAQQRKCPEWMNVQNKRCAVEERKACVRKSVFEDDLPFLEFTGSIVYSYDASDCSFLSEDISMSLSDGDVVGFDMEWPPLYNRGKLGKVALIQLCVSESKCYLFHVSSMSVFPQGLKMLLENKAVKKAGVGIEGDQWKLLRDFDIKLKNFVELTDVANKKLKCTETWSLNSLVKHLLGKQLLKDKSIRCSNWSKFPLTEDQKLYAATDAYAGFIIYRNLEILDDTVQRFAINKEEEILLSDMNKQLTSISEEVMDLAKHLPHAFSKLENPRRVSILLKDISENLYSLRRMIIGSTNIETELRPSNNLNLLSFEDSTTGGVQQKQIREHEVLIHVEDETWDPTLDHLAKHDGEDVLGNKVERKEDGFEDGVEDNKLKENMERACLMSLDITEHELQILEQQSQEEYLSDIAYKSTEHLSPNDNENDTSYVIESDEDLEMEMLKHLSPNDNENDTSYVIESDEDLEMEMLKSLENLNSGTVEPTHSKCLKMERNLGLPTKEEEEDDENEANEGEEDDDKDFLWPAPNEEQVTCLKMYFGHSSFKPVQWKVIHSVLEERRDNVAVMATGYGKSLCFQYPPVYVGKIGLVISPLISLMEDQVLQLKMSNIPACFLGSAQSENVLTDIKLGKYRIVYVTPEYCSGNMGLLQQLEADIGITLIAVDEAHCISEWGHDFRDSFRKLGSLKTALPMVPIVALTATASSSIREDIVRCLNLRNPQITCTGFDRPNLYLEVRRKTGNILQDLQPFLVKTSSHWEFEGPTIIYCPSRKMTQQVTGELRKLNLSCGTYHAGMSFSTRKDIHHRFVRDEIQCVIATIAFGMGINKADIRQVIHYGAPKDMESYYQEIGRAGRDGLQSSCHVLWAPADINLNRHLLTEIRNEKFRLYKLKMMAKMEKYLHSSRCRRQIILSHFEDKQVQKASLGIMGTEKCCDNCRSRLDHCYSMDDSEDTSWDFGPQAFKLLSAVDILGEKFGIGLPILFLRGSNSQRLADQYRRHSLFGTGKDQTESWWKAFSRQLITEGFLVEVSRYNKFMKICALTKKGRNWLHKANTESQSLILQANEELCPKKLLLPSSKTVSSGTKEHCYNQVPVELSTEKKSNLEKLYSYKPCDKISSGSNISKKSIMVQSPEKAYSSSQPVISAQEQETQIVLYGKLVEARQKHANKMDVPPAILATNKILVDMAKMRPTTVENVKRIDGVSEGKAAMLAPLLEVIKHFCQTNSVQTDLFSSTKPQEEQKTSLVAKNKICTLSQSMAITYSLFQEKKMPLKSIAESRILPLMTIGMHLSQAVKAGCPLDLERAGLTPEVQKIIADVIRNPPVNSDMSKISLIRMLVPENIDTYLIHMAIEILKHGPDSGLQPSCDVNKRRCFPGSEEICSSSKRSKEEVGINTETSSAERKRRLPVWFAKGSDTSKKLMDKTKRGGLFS

## CCc1c(N2CCN(C(=O)c3ncnc(C)c3O)CC2)c(=O)n2nc(-c3cc4ccccc4s3)nc2n1CC(=O)Nc1ccc(C(F)(F)F)cc1Cl [Example 80, 2-(2-(benzo[b]thiophen-2-yl)-5-ethyl-6-(4-(5-hydroxy-6-methylpyrimidine-4-carbonyl)piperazin-1-yl)-7-oxo-[1,2,4]triazolo[1,5-a]pyrimidin-4(7H)-yl)-N-(2-chloro-4-(trifluoromethyl)phenyl)acet amide]
Recombinant human WRN
  IC50: 1 to 100 nM
RL95-2 cells
  IC50: 1 to 100 nM
[1]; read-out: Area under curve AUC0-t
  AUC(0-t): 104 µg·h/mL
[1]; read-out: Half-life T1/2 (converted)
  half-life: 127 min
[1]; read-out: Plasma concentration Cmax
  Cmax: 19800 ng/mL
